Ki and IC50 data for 31 compounds are collected here from ChEMBL document CHEMBL5346980 (J Med Chem, 2023).

The target of one test is Carbonic anhydrase 2 (Homo sapiens, UniProt P00918). In words: Inhibition of recombinant human carbonic anhydrase 2 incubated for 15 mins prior to testing by phenol red based stopped-flow CO2 hydration assay.
Test [1] addresses T1, Vascular endothelial growth factor receptor 2 (Homo sapiens, UniProt P35968).
The next test addresses Carbonic anhydrase 1 (Homo sapiens, UniProt P00915). In words: Inhibition of recombinant human carbonic anhydrase 1 incubated for 15 mins prior to testing by phenol red based stopped-flow CO2 hydration assay.
The target of test [2] is T1, Vascular endothelial growth factor receptor 2. This is another data set of the same source.
Description: Inhibition of human VEGFR-2 by ELISA
A further test concerns HepG2. In words: cells. Conditions: Homo sapiens.

Carbonic anhydrase 1, sequence (P00915 whole entry): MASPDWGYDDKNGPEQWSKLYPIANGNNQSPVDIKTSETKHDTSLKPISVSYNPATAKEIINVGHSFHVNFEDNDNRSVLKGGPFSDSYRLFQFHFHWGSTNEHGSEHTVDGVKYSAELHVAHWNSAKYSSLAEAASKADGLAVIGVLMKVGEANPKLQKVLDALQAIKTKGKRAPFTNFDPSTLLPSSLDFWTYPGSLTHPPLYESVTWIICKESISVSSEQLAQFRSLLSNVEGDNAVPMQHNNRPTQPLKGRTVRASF
T1 sequence (P35968 whole entry): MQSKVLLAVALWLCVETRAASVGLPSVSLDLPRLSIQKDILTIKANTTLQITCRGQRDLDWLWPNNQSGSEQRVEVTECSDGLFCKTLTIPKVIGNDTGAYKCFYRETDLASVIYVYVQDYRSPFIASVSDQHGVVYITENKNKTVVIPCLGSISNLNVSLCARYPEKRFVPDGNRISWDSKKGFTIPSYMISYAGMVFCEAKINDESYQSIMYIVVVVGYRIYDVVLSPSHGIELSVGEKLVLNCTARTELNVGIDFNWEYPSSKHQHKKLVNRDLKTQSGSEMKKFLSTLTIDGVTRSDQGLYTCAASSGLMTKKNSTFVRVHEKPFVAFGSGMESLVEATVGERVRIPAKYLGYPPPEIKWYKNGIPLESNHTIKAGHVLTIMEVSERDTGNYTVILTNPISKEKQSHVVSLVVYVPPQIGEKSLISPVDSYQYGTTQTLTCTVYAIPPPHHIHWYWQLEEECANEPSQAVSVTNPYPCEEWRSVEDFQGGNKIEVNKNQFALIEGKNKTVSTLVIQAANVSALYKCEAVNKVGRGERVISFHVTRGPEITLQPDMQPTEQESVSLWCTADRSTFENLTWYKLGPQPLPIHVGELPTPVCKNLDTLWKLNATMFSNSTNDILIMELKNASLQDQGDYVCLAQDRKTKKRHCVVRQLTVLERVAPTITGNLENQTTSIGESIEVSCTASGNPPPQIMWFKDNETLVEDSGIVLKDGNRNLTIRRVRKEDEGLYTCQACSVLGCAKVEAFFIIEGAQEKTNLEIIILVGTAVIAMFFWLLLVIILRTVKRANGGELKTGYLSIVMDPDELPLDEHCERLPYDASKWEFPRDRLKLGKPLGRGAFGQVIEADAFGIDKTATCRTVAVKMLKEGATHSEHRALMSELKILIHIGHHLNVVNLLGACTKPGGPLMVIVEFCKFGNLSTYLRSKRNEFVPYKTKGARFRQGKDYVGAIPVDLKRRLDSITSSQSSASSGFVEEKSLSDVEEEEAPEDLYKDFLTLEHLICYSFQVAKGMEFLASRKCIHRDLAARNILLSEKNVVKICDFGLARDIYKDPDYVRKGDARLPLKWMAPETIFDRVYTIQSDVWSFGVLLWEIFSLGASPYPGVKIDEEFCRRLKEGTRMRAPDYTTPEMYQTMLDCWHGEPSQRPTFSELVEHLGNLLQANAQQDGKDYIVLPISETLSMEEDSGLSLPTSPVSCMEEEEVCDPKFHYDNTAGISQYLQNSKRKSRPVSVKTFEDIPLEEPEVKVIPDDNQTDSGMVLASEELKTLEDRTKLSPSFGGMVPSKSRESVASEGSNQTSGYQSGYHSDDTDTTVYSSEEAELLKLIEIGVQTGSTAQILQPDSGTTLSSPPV
Description for HepG2: Cytotoxicity against human HepG2 cells by MTT assay

As a reminder, the Ki is a measure of affinity in units of concentration, obtained from inhibition or displacement. The term IC50 denotes the concentration at which inhibition is half-maximal. A higher IC50 goes with a need for much substance. For the compound `NS(=O)(=O)c1ccccc1NC(=O)Nc1nc(-c2ccccc2)n(-c2ccc(Cl)cc2)n1`, the Ki at Carbonic anhydrase 2 was 241 nM; on Carbonic anhydrase 1, over 10000 nM. In test [1], this compound displayed an IC50 of 271 nM.
Turning to `COc1ccc(-n2nc(NC(=O)Nc3ccc(S(N)(=O)=O)cc3)nc2-c2ccccc2)cc1`, the inhibition constant Ki at Carbonic anhydrase 2 is 29.4 nM; on Carbonic anhydrase 1 it was 3870 nM.
For the compound `COc1cc(-c2nc(C(=O)Nc3ccccc3)nn2-c2ccc(F)c(Cl)c2)cc(OC)c1OC`, the IC50 in test [2] came to 19.8 nM; in the test with HepG2, 240 nM.
Consider `COc1ccc(-n2nc(NC(=O)Nc3ccc(C)c(S(N)(=O)=O)c3)nc2-c2ccccc2)cc1`, for which the Ki at Carbonic anhydrase 2 came to 72.4 nM. In test [1], this compound returned an IC50 of 717 nM.
As for `NS(=O)(=O)c1ccc(CCNC(=O)Nc2nc(-c3ccccc3)n(-c3cccc(Cl)c3)n2)cc1`, the Ki was 20.1 nM on Carbonic anhydrase 2 and 61.8 nM at Carbonic anhydrase 1.
As to `NS(=O)(=O)c1cccc(NC(=O)Nc2nc(-c3ccccc3)n(-c3ccc(Cl)cc3)n2)c1`, the Ki at Carbonic anhydrase 1 came out at 8260 nM.
For `COc1ccc(-n2nc(NC(=O)Nc3ccc(C)c(S(N)(=O)=O)c3)nc2-c2ccccc2)cc1OC`, at Carbonic anhydrase 2, the Ki worked out at 547 nM.
Consider `COc1ccc(-n2nc(NC(=O)NCCc3ccc(S(N)(=O)=O)cc3)nc2-c2ccccc2)cc1OC`, for which the Ki at Carbonic anhydrase 2 is 16.4 nM; at Carbonic anhydrase 1, 153 nM.
On the same counts, the results for `Cc1ccc(NC(=O)Nc2nc(-c3ccccc3)n(-c3ccc(F)cc3)n2)cc1S(N)(=O)=O` are 170 nM and over 10000 nM.
On the same counts, the results for `COc1ccc(-n2nc(NC(=O)Nc3cccc(S(N)(=O)=O)c3)nc2-c2ccccc2)cc1OC` are 285 nM and over 10000 nM.
For the compound `COc1cccc(-n2nc(NC(=O)Nc3ccccc3S(N)(=O)=O)nc2-c2ccccc2)c1`, the Ki on Carbonic anhydrase 2 is 158 nM; on Carbonic anhydrase 1, over 10000 nM.
The like results for `NS(=O)(=O)c1ccc(CCNC(=O)Nc2nc(-c3ccccc3)n(-c3ccc(F)cc3)n2)cc1` were, in that order, 3.4 nM and 39.8 nM.
The like results for `NS(=O)(=O)c1cccc(NC(=O)Nc2nc(-c3ccccc3)n(-c3cccc(Cl)c3)n2)c1` were, in that order, 101 nM and 5820 nM.
On the same counts, the results for `NS(=O)(=O)c1ccc(NC(=O)Nc2nc(-c3ccccc3)n(-c3ccc(F)cc3)n2)cc1` are 25.2 nM and 2250 nM.
Turning to `NS(=O)(=O)c1ccccc1NC(=O)Nc1nc(-c2ccccc2)n(-c2cccc(Cl)c2)n1`, at Carbonic anhydrase 1, the Ki was over 10000 nM.
In the case of `COc1ccc(-n2nc(NC(=O)Nc3ccccc3S(N)(=O)=O)nc2-c2ccccc2)cc1`, the Ki was 158 nM on Carbonic anhydrase 2 and over 10000 nM on Carbonic anhydrase 1.
With `COc1cccc(-n2nc(NC(=O)Nc3ccc(S(N)(=O)=O)cc3)nc2-c2ccccc2)c1`, the Ki at Carbonic anhydrase 2 came to 13.6 nM.
Regarding `COc1ccc(-n2nc(NC(=O)Nc3ccccc3S(N)(=O)=O)nc2-c2ccccc2)cc1OC`, the Ki at Carbonic anhydrase 2 is 112 nM; on Carbonic anhydrase 1, over 10000 nM.
On to `COc1ccc(-n2nc(NC(=O)Nc3cccc(S(N)(=O)=O)c3)nc2-c2ccccc2)cc1`, for which the Ki is 56 nM at Carbonic anhydrase 2 and 4190 nM at Carbonic anhydrase 1. The compound further displayed a half-maximal inhibitory concentration (IC50) in test [1] of 183 nM.
On to `NS(=O)(=O)c1ccc(CCNC(=O)Nc2nc(-c3ccccc3)n(-c3ccc(Cl)cc3)n2)cc1`, for which the Ki at Carbonic anhydrase 2 stood at 41.7 nM.
The same measure, in the same setting: then `COc1ccc(-n2nc(NC(=O)Nc3ccc(S(N)(=O)=O)cc3)nc2-c2ccccc2)cc1OC`, with 16.9 nM.
In test [1], `NS(=O)(=O)c1ccc(NC(=O)Nc2nc(-c3ccccc3)n(-c3cccc(Cl)c3)n2)cc1` yielded a 50% inhibitory concentration (IC50) of over 1000 nM. Moreover, the Ki on Carbonic anhydrase 1 worked out at 2690 nM.
On to `NS(=O)(=O)c1ccc(NC(=O)Nc2nc(-c3ccccc3)n(-c3ccc(Cl)cc3)n2)cc1`, for which, at Carbonic anhydrase 2, the inhibition constant Ki came to 84.6 nM. The compound also registered an IC50 in test [1] of 318 nM.
As for `COc1cccc(-n2nc(NC(=O)Nc3ccc(C)c(S(N)(=O)=O)c3)nc2-c2ccccc2)c1`, the Ki on Carbonic anhydrase 2 was 230 nM; on Carbonic anhydrase 1, over 10000 nM.
In the case of `COc1cccc(-n2nc(NC(=O)Nc3cccc(S(N)(=O)=O)c3)nc2-c2ccccc2)c1`, the Ki on Carbonic anhydrase 2 worked out at 91.5 nM; on Carbonic anhydrase 1 it was 9430 nM.
Take `NS(=O)(=O)c1cccc(NC(=O)Nc2nc(-c3ccccc3)n(-c3ccc(F)cc3)n2)c1`: the Ki on Carbonic anhydrase 2 was 99 nM; on Carbonic anhydrase 1, 4900 nM.
In the case of `Cc1ccc(NC(=O)Nc2nc(-c3ccccc3)n(-c3cccc(Cl)c3)n2)cc1S(N)(=O)=O`, the Ki on Carbonic anhydrase 2 was 91.4 nM; on Carbonic anhydrase 1, over 10000 nM. In addition, half-maximal inhibition in test [1] (IC50) was put at 96.2 nM.
Regarding `Cc1ccc(NC(=O)Nc2nc(-c3ccccc3)n(-c3ccc(Cl)cc3)n2)cc1S(N)(=O)=O`, the Ki at Carbonic anhydrase 2 was 127 nM; on Carbonic anhydrase 1, over 10000 nM. The compound also yielded an IC50 in test [1] of 541 nM.
As to `COc1cccc(-n2nc(NC(=O)NCCc3ccc(S(N)(=O)=O)cc3)nc2-c2ccccc2)c1`, the values for the Ki at Carbonic anhydrase 2 and on Carbonic anhydrase 1 were 35.8 nM and 104 nM, respectively.
Consider `COc1ccc(-n2nc(NC(=O)NCCc3ccc(S(N)(=O)=O)cc3)nc2-c2ccccc2)cc1`, for which, at Carbonic anhydrase 1, the Ki was determined as 82.7 nM.
As to `NS(=O)(=O)c1ccccc1NC(=O)Nc1nc(-c2ccccc2)n(-c2ccc(F)cc2)n1`, the inhibitory constant (Ki) at Carbonic anhydrase 2 is 384 nM; on Carbonic anhydrase 1 it was over 10000 nM.
